Consider 12 molecules from ChEMBL document CHEMBL1201862, “PubChem BioAssay data set” (2004).

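Five concentrations, 48 hours, 96-well plates. GI50 is the concentration that inhibits growth by half.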 The source made the active and inactive calls. Cut-off read from the data, not from the text of the source: active = GI50 up to about 1.1 µM and inactive = higher.

Common to all, as to test: NCI tumour cell line growth inhibition, 48 h
For test [1], the system named is CAKI-1.
In test [2] the test system is OVCAR-3.
Test [3] relates to MOLT-4.
Test [4] has as its system KM12.
In test [5] the test system is SK-MEL-5.
Test [6] deals with HOP-62.
Test [7] has as its system DMS-273.
Test [8] concerns KM-20L2.
Test [9] has as its system LXFL 529.
The subject of test [10] is SN12C.
Test [11] has as its system NCI-H522.
The test system of test [12] is CCRF-CEM.
In test [13] the test system is LOX IMVI.
The test system of test [14] is M19-MEL.
Test [15] has as its system HL-60.
For test [16], the system named is TK-10.
In test [17] the test system is PC-3.
Test [18] concerns DU-145.
Test [19] relates to MDA-N.
The test system of test [20] is T47D.

As to `CC(=O)OCC(OC(C)=O)C(OC(C)=O)C(OC(C)=O)C(=O)CNn1c(-c2ccccc2Cl)nc2ccc(Br)cc2c1=O` (centres undefined), the GI50 in test [1] was 38.3 µM (inactive); in test [2] it was 62.2 µM (inactive); in [3], 34.6 µM (inactive); in test [4], > 100 µM (inactive); in test [5], 57.5 µM (inactive); in test [6], > 100 µM (inactive). Further, the GI50 in test [7] was 56.5 µM (inactive); in test [8] it was > 100 µM (inactive); in test [9], 36.9 µM (inactive); in test [10], 36.3 µM (inactive); in test [11], 33.2 µM (inactive); in test [12], 42.5 µM (inactive). Also, the GI50 is 82 µM (inactive) in [13], > 100 µM (inactive) in test [14] and 23.8 µM (inactive) in test [15].
On to `O=C(/C=C/c1cccc([N+](=O)[O-])c1)c1cccnc1`, for which the GI50 in test [1] was > 46.5 µM (inactive); in test [16], > 100 µM (inactive); in test [2] it was 27.5 µM (inactive); in test [3], 26.4 µM (inactive); in [4], 19.9 µM (inactive); in test [5], 14.7 µM (inactive). For the same molecule, the GI50 in test [6] is > 100 µM (inactive); in test [7], 25.3 µM (inactive); in [8] it was 27.7 µM (inactive); in [9] it was 21 µM (inactive); in test [10], 26.5 µM (inactive); in test [11], 7.98 µM (inactive). Besides, the GI50 in [12] is 24.6 µM (inactive); in [13], 21.2 µM (inactive); in test [14], 31.2 µM (inactive); in test [15] it was 20.6 µM (inactive).
Regarding `Oc1cccnc1/C=N/OCc1ccccc1`, the GI50 in [1], in [16], in test [2], in [3], in test [4] and in test [5] was > 100 µM (inactive) each time. In addition, the GI50 in test [6] is > 100 µM (inactive); in [7] it was > 100 µM (inactive); in test [8], > 100 µM (inactive); in test [9] it was > 100 µM (inactive); in test [10], 97.1 µM (inactive); in test [11], > 100 µM (inactive). Moreover, the GI50 in [12], in [13], in [14] and in test [15] was > 100 µM (inactive) throughout.
Regarding `Cc1cc(O)nc(NNC(C#N)c2ccc([N+](=O)[O-])cc2)n1` (centres undefined), the GI50 in test [1] is 33.4 µM (inactive); in test [16] it was > 100 µM (inactive); in test [2], > 100 µM (inactive); in test [3] it was > 100 µM (inactive); in test [4], 84.9 µM (inactive); in test [5], > 100 µM (inactive). For the same molecule, the GI50 in test [6] was > 100 µM (inactive); in test [7] it was 91.4 µM (inactive); in test [8], > 100 µM (inactive); in test [9], > 100 µM (inactive); in test [10], > 100 µM (inactive); in [11], > 100 µM (inactive). Moreover, the GI50 in test [12] is > 100 µM (inactive); in test [13], > 100 µM (inactive); in [14] it was > 100 µM (inactive); in test [15], 63.4 µM (inactive).
For the molecule `C/C(=N\NC(=S)N1CCN(c2ccccn2)CC1)c1ccccn1`, the GI50 in test [1] was 0.0467 µM (active); in test [16], 0.871 µM (active); in test [17] it was 0.0304 µM (active); in test [2] it was 0.00327 µM (active); in test [3] it was 0.0156 µM (active); in test [4], 0.129 µM (active). The GI50 in [18] was 1.08 µM (active); in test [5] it was 0.0944 µM (active); in test [19], 0.167 µM (active); in test [6], 0.035 µM (active); in test [7], 0.00069 µM (active); in test [8], 0.000413 µM (active). Besides, the GI50 in test [9] is 0.000342 µM (active); in [10] it was 0.0206 µM (active); in test [11] it was 0.0818 µM (active); in test [12], 0.00337 µM (active); in [13] it was 0.0403 µM (active); in test [14], 1.01 µM (active). Further, the GI50 in test [20] is 0.107 µM (active).
As to `C=Cc1ccc(C)[n+](C[Si](C)(C)O[Si](C)(C)C[n+]2cc(C=C)ccc2C)c1`, the GI50 in test [1], in test [16], in test [2], in test [3], in [4] and in test [5] was > 100 µM (inactive) each time. In addition, the GI50 in test [6], in test [7], in test [8], in [9], in test [10] and in test [11] was > 100 µM (inactive) in each case. Besides, the GI50 in test [12], in test [13], in test [14] and in test [15] was > 100 µM (inactive) in each case.
For the molecule `N=C(N)NS(=O)(=O)c1ccc(NCc2c3ccccc3[n+]([O-])c3ccccc23)cc1`, the GI50 in test [1] was 21.3 µM (inactive); in test [16], > 100 µM (inactive); in test [2] it was 46.1 µM (inactive); in test [3], 1.94 µM (inactive); in test [4], 30.4 µM (inactive); in test [5], 14 µM (inactive). Moreover, the GI50 is 15.9 µM (inactive) in [6]; 9.35 µM (inactive) in test [7]; 30.1 µM (inactive) in test [8]; 17.1 µM (inactive) in test [9]; 15 µM (inactive) in [10]; 29.9 µM (inactive) in [11]. Moreover, the GI50 in test [12] is 5.64 µM (inactive); in test [13], 11.1 µM (inactive); in [14], 22.9 µM (inactive); in test [15] it was 6.08 µM (inactive).
As to `O=c1cccccc1NCCCCNc1cccccc1=O`, the GI50 in test [1] was 83 µM (inactive); in test [16], > 100 µM (inactive); in [2], > 100 µM (inactive); in test [3] it was 62.1 µM (inactive); in [4], > 100 µM (inactive); in test [5] it was 30 µM (inactive). In addition, the GI50 in [6] was > 100 µM (inactive); in test [7], > 100 µM (inactive); in [8], > 100 µM (inactive); in test [9], 48.8 µM (inactive); in test [10] it was > 100 µM (inactive); in test [11], 83.8 µM (inactive). Further, the GI50 is > 100 µM (inactive) in [12], > 100 µM (inactive) in test [13], 83.2 µM (inactive) in test [14] and 49.7 µM (inactive) in test [15].
As to `CC(C)NC(=O)O/N=C1\CCC2[C@@H]3CC=C4C[C@@H](OC(=O)NC(C)C)CC[C@]4(C)C3CC[C@]12C` (some centres undefined), the GI50 in test [1] is 1.44 µM (inactive); in test [16], 1.66 µM (inactive); in test [2], 1.08 µM (active); in test [3], 1.42 µM (inactive); in [4] it was 1.68 µM (inactive); in test [5] it was 0.425 µM (active). The GI50 in [6] is 6.53 µM (inactive); in [7] it was 1.31 µM (inactive); in test [8], 2.59 µM (inactive); in test [9] it was 0.912 µM (active); in test [10], 1.57 µM (inactive); in test [11] it was 1.53 µM (inactive). Moreover, the GI50 in test [12] was 1.24 µM (inactive); in test [13], 1.03 µM (active); in test [14], 1.29 µM (inactive); in test [15] it was 0.632 µM (active).
`C=Cc1cncc(C#N)c1CCc1c(C#N)cncc1C=C`: the GI50 is 63.2 µM (inactive) in [1]; > 10 µM (inactive) in [16]; > 10 µM (inactive) in test [2]; > 10 µM (inactive) in test [3]; > 10 µM (inactive) in test [4]; > 10 µM (inactive) in [5]. The GI50 in test [6], in test [7], in test [8], in [9], in test [10] and in test [11] was > 10 µM (inactive) in each case. In addition, the GI50 in test [12] is > 10 µM (inactive); in test [13] it was > 100 µM (inactive); in test [14] it was > 10 µM (inactive); in test [15], > 10 µM (inactive).
Turning to `N#CC(C#N)=Cc1cccc(Oc2ccccc2)c1`, the GI50 in [1] was 25.6 µM (inactive); in test [16], 31.7 µM (inactive); in [2] it was 23 µM (inactive); in test [3], 25 µM (inactive); in [4] it was 22.3 µM (inactive); in test [5], 18.9 µM (inactive). Moreover, the GI50 was 23.4 µM (inactive) in [6]; 19 µM (inactive) in [7]; 37.4 µM (inactive) in test [8]; 18.5 µM (inactive) in test [9]; 22.5 µM (inactive) in test [10]; 21.2 µM (inactive) in test [11]. In addition, the GI50 in test [12] is 20.6 µM (inactive); in test [13] it was 20.6 µM (inactive); in test [14] it was 27.5 µM (inactive); in test [15] it was 18.5 µM (inactive).
`COC(=O)C(=O)CC(=O)CCn1ncc(Cl)c(Cl)c1=O`: the GI50 in test [1] was 5.78 µM (inactive); in test [16], 47.4 µM (inactive); in [2] it was 12.8 µM (inactive); in [3], 6.19 µM (inactive); in [4], 25.9 µM (inactive); in test [5], 16.3 µM (inactive). For the same molecule, the GI50 is 22.7 µM (inactive) in test [6]; 14.9 µM (inactive) in test [7]; 16.9 µM (inactive) in [8]; 10 µM (inactive) in test [9]; 16.9 µM (inactive) in test [10]; 0.57 µM (active) in test [11]. Also, the GI50 in [12] was 3.59 µM (inactive); in [13] it was 7.16 µM (inactive); in test [14], 4.01 µM (inactive); in [15], 3.94 µM (inactive).
